We go through four compounds from patent publication US7462598B2, “Antimicrobial theta defensins, analogs thereof, and methods of use” (priority 2002, dated 2008).

Series [1] relates to C. albicans 16820. In words: Cell-suspension microbicidal assay (MMC). The conditions noted are these: for fold lower candidacidal potency than native PG-1: from MMC, Table 2; for MMC, C. albicans: lowest concentration that reduced cell viability by 99.9%, 10 mM PIPES, 5 mM glucose, pH 7.4, 2 h 37° C.; for fold higher potency against C. albicans than the peptide acid analog: carboxamide versus C-terminal acid of the same acyclic θ-defensin. In kind it is cell-based, Candida albicans. On the procedure: (§1) To test microbicidal activities, the activities of each peptide against S. aureus 502a, E. coli ML35, and C. albicans 16820 were assessed essentially as described in Example I with modifications to allow for simultaneous analysis of all twenty peptides. Briefly, two-fold serial dilutions of each peptide (in 0.01% acetic acid 0.062-8.0 μg/ml final concentrations) were mixed with 10 mM PIPES, pH 7.4, containing 5 mM glucose in sterile polystyrene 96-well plates (Corning, N.Y.). Aliquots of log-phase bacteria or yeast were added to a 2×10^6 CFU/ml final density as determined by A620. After 2 h incubation at 37° C., 15 μl of the incubation mixture was removed and serially diluted ten-fold from 1:10 to 1:10^6 in trypticase soy broth (bacteria) or Sabaraud dextrose broth (C. albicans). The diluted cell suspensions were grown 24-48 h at 37° C. until cell pellets were visible. Microbicidal activity was determined as absence of growth and was correlated to CFU/ml in control experiments where activity was determined in parallel by colony counting (see Example I). Absence of growth at the 1:10^3 dilution is equivalent to a 3-log reduction in microbial viability.
(§2) The microbicidal activities of each peptide against E. coli ML35, S. aureus 502a, and C. albicans 16820 were determined with cell-suspension microbicidal assays in 96-well plates (see Example II). Briefly, log-phase cells (2×10^6 CFU/ml final) were incubated with increasing concentrations of peptides (0-8 μg/ml final) in 50 μl of 10 mM PIPES, 5 mM glucose, pH 7.4, for 2 h at 37° C. Incubation mixtures were diluted 1:10 to 1:10^6 with trypticase-soy broth (bacteria) or Sabaraud dextrose broth (fungi) and incubated at 37° C. for 24-48 h until cell pellets were visible. Microbicidal activities (confirmed in control experiments as described in Example II) were determined as the absence of a cell pellet in the various dilutions. Peptide concentrations that caused ≧99.9% killing (absence of a cell pellet at 1:10^3 dilution) were taken as the minimum microbicidal concentrations (MMC).

For series [2], the system named is E. coli ML35. The series is described as follows: Membrane permeabilization assay (ONPG hydrolysis). The conditions noted are these: rates at 1 μg/ml concentration of each peptide. In kind it is cell-based, Escherichia coli. How it is done: For the membrane permeabilization assay, the permeabilization of bacterial cytoplasmic membranes was determined by measuring hydrolysis of o-nitrophenyl-β-D-galactcpyranoside (ONPG) in E. coli ML35 (Sitaram et al., FEBS Lett. 303:265-268 (1992); Lehrer et al.,. J. Immunol. Methods 108:153-158 (1988)). Peptides dissolved in 5 μl of 0.01% acetic acid were two-fold serially diluted with 10 mM PIPES, pH 7.4, containing 3 mM ONPG, to final peptide concentrations of 0-8.0 μg/ml. Log-phase bacteria, prepared in PIPES buffer as described for the microbicidal assay (see Example I), were added to 1×10^6 CFU/ml final density in a final volume of 90 μl. ONPG hydrolysis was measured at 405 nm for 60 min using a SpectraMAX 190 plate reader and SOFTmaxPRO 3.1 (Molecular Devices Corp., CA). […]

Series [3] deals with S. aureus 502a, E. coli ML35, and C. albicans 16820. The series is described as follows: Cell-suspension microbicidal assay, statements across the test organisms (lowest MMC, overall ranges). It counts as cell-based. The following applies: peptide concentration that kill 99.9% of either S. aureus, E. coli, or C. albicans; lowest MMC value. On the procedure:
as §1, §2
(§3) A selectivity index (SI=H/M) was calculated as a ratio of a peptide concentration (μg/ml) that causes 3% hemolysis (H) obtained from a dose-dependent hemolysis plot over 0.3 to 3 μg/ml of each peptide in PBS and the lowest MMC value (M) for any of the three test microorganisms (see Example II; Table 2).

The test system of series [4] is E. coli ML35. The series is described as follows: Cell-suspension microbicidal assay (MMC). It counts as cell-based, Escherichia coli. The following applies: for MMC, E. coli: lowest concentration that reduced cell viability by 99.9%, 10 mM PIPES, 5 mM glucose, pH 7.4, 2 h 37° C.; for fold higher potency against E. coli than the peptide acid analog: carboxamide versus C-terminal acid of the same acyclic θ-defensin. How it is done: as §1, §2

Series [5] concerns S. aureus 502a. In words: Cell-suspension microbicidal assay (MMC). The conditions noted are these: for MMC, S. aureus: lowest concentration that reduced cell viability by 99.9%, 10 mM PIPES, 5 mM glucose, pH 7.4, 2 h 37° C.; for fold reduction of staphylocidal potency relative to the peptide acid analog: carboxamide versus C-terminal acid of the same acyclic θ-defensin. It counts as cell-based, Staphylococcus aureus. On the procedure: as §1, §2

Series [6] has as its system human erythrocytes. In words: Hemolysis assay. In kind it is cell-based. How it is done:
For the hemolysis assay, the hemolytic activity of each peptide was determined by the method of Tam et al. (Tam et al., Eur. J. Biochem. 267:3289-3300 (2000)). Blood was obtained from a healthy donor in accordance to a protocol approved by the Institutional Review Board. Normal human serum was prepared from the same individual and stored at −20° C. Red blood cells (RBC) were prepared from blood collected in EDTA. RBC were harvested at 234×g for 10 min, 22° C., washed four times with 10 mM sodium phosphate, 150 mM NaCl, pH 7.4 (PBS), containing 4 mM EDTA and resuspended in PBS without EDTA. Peptides dissolved in 10 μl 0.01% HOAc were diluted with PBS to final concentrations of 0.3-100 μg/ml. RBC were added to a 2% final density in 100 μl. Incubation mixtures were also prepared with 10% serum. After 1 h incubation at 37° C., the cell suspensions were centrifuged at 234×g for 10 min, 22° C. Fifty-μl samples of the supernatants were removed, and the absorbance at 405 nm (A) was measured. Hemolytic activity of each peptide was calculated relative to lysis by 1% NP-40 using the following formula:
as §3

Bridge positions count the residues as written; N and C are the ends. Peptide text beside a SMILES is read from it.

Turning to `CC(C)[C@@H]1NC(=O)[C@@H]2CSSC[C@H](NC(=O)[C@H](CCCNC(=N)N)NC(=O)[C@@H]3CSSC[C@H](NC1=O)C(=O)N[C@@H](CCCNC(=N)N)C(=O)N[C@@H](CCCNC(=N)N)C(=O)NCC(=O)NCC(=O)N3)C(=O)N[C@@H](Cc1ccc(O)cc1)C(=O)N[C@H]1CSSC[C@H](NC(=O)[C@H](Cc3ccccc3)NC(=O)[C@H](CCCNC(=N)N)NC(=O)[C@H](CCCNC(=N)N)NC(=O)[C@H](CCCNC(=N)N)NC1=O)C(=O)N[C@@H](C(C)C)C(=O)N2` [3cys cPG-1] (cyclo(GGCRCYCRRRFCVCVCRR); disulfide 3-16, 5-14, 7-12), in series [1], the “fold lower candidacidal potency than native PG-1” value is 3 fold and the “MMC, C. albicans” value came to 2.5 µg/mL. Also, the ONPG hydrolysis in series [2] is 10.7 (A405/sec) · 10^−5. This compound also registered a M in series [3] of 0.5 µg/mL. In addition, in series [4], the “MMC, E. coli” value stood at 1.3 µg/mL. Further, the “MMC, S. aureus” value in series [5] stood at 0.5 µg/mL. Also, the hemolysis in series [6] was 5-6%.
`CC[C@H](C)[C@@H]1NC(=O)[C@@H]2CSSC[C@H](NC(=O)[C@H](CCCNC(=N)N)NC(=O)[C@@H](NC(=O)[C@H](Cc3ccccc3)NC(=O)CN)CSSC[C@@H](C(=O)N[C@H](C(=O)N[C@@H](CCCNC(=N)N)C(N)=O)[C@@H](C)O)NC1=O)C(=O)N[C@@H](CC(C)C)C(=O)N[C@H]1CSSC[C@H](NC(=O)[C@H](C(C)C)NC(=O)CNC(=O)[C@H](CCCNC(=N)N)NC(=O)[C@H](CCCNC(=N)N)NC1=O)C(=O)N[C@@H](CCCNC(=N)N)C(=O)N2` [aRTD-1-NH] (H-GFCRCLCRRGVCRCICTR-NH2; disulfide 3-16, 5-14, 7-12; N-terminus assumed): in series [1], the “fold higher potency against C. albicans than the peptide acid analog” value is recorded as 4 fold and the “MMC, C. albicans” value came out at 1.0 µg/mL. The ONPG hydrolysis in series [2] is 8.8 (A405/sec) · 10^−5. For the same compound, the M in series [3] was 1 µg/mL. Also, in series [4], the “fold higher potency against E. coli than the peptide acid analog” value was found to be 4 fold and the “MMC, E. coli” value came to 2.0 µg/mL. In addition, in series [5], the “fold reduction of staphylocidal potency relative to the peptide acid analog” value is reported as “no effect” and the “MMC, S. aureus” value stood at 5.0 µg/mL. Further, the H in series [6] (peptide concentration that causes 3% hemolysis, calculated from dose-dependent hemolysis plot over 0.3-3 μg/ml in PBS) was 8.8 µg/mL.
For the compound `CC(C)C[C@@H]1NC(=O)[C@@H]2CSSC[C@H](NC(=O)[C@H](CCCNC(=N)N)NC(=O)[C@@H](NC(=O)[C@@H](NC(=O)CN)C(C)C)CSSC[C@@H](C(=O)N[C@@H](CCCNC(=N)N)C(=O)N[C@@H](CCCNC(=N)N)C(N)=O)NC1=O)C(=O)N[C@@H](CC(C)C)C(=O)N[C@H]1CSSC[C@H](NC(=O)[C@H](C(C)C)NC(=O)CNC(=O)[C@H](CCCNC(=N)N)NC(=O)[C@H](CCCNC(=N)N)NC1=O)C(=O)N[C@@H](CCCNC(=N)N)C(=O)N2` [aRTD-3-NH] (H-GVCRCLCRRGVCRCLCRR-NH2; disulfide 3-16, 5-14, 7-12; N-terminus assumed), in series [1], the “fold higher potency against C. albicans than the peptide acid analog” value is 2- to 4 fold and the “MMC, C. albicans” value is 0.8 µg/mL. Moreover, in series [2], the ONPG hydrolysis is on record as 9.7 (A405/sec) · 10^−5. Further, the M in series [3] worked out at 0.75 µg/mL. Also, in series [4], the “fold higher potency against E. coli than the peptide acid analog” value was 2- to 4 fold and the “MMC, E. coli” value amounted to 1.0 µg/mL. In series [5], the “fold reduction of staphylocidal potency relative to the peptide acid analog” value is 3 fold and the “MMC, S. aureus” value was 4.5 µg/mL.
On to `CC(C)C[C@@H]1NC(=O)[C@H](CCCNC(=N)N)NC(=O)CNC(=O)CNC(=O)[C@H](CCCNC(=N)N)NC(=O)[C@H](CCCNC(=N)N)NC(=O)CNC(=O)[C@H](C(C)C)NC(=O)[C@@H]2CSSC[C@H](NC1=O)C(=O)N[C@@H](Cc1ccc(O)cc1)C(=O)N[C@H]1CSSC[C@H](NC(=O)[C@H](Cc3ccccc3)NC(=O)[C@H](CCCNC(=N)N)NC(=O)[C@H](CCCNC(=N)N)NC(=O)[C@H](CCCNC(=N)N)NC1=O)C(=O)N[C@@H](C(C)C)C(=O)N2` [cPG-1] (cyclo(GGRLCYCRRRFCVCVGRR); disulfide 5-14, 7-12), for which, in series [1], the “fold lower candidacidal potency than native PG-1” value was found to be 3 fold and the “MMC, C. albicans” value is 2.5 µg/mL. In addition, the ONPG hydrolysis in series [2] is on record as 11.0 (A405/sec) · 10^−5. In series [3], the M amounted to 1 µg/mL. Also, the “MMC, E. coli” value in series [4] amounted to 1.0 µg/mL. Besides, the “fold lower staphylocidal potency than native PG-1” value in series [5] (from MMC, Table 2) came to 5 fold. In series [5], the “MMC, S. aureus” value worked out at 2.0 µg/mL. In addition, the hemolysis in series [6] was 40-50%.
